Where “and” joins values, the source holds several entries; their conditions need not be identical. Identical values can stand only once. Like-named read-outs stand apart in the source and are kept apart here. Where no end group is shown, it is not given here.
What was measured:
Type in all cases: cell-based
NMU2 F284A = target: T1, NMU2 F284A (Homo sapiens, UniProt Q9GZQ4, F284A); experiment: TRUPATH assay, NMU2 mutant F284A
T1 construct: HA signal peptide (N); expressed in transfected cells; host or cells: HEK 293F
Experimental: (§1) The plasmids of Gαi1, Gβ3, and Gγ9 used for the TRUPATH assay were purchased from Addgene (TRUPATH Kit, #1000000163). NMU2 constructs of WT and mutants were constructed into a PTT5 vector (Invitrogen) with an N-terminal HA signal peptide followed by a Flag tag. HEK 293F cells were transiently transfected with WT or mutants of NMU2, Gαi1, Gβ3, and Gγ9 at an […] ratio of 4:1:1:1 with a total of 3500 ng plasmid DNA using a transfection reagent (PEI MAX 2000, Polysciences) and cultivated at 37 °C with 5 % CO2. Cells were collected after 48-h transfection. The expression level of the receptor was measured by incubating 10 μl cells with 15 μl TBS buffer supplemented with 4% bovine serum albumin, 20% (v/v) viability staining solution7-AAD (Invitrogen, Cat#00-6993-50), and ANTI-FLAG M2-FITC antibody (Sigma, F4049; 1:100 diluted by TBS) at 4 °C for 20 min. After incubation, 175 μl TBS buffer was added, and the fluorescence signal on the cell surface was detected by an FCM (flow cytometry) reader (Millipore). The cells were diluted with 1× HBSS (Hank’s balanced salt solution) balanced buffer supplemented with 25 mM HEPES, pH 7.4, and seeded onto the 96-well opaque cell culture plates (Beyotime) at a density of 18,000 cells per well by 60 μl. Freshly prepared 50 μM coelenterazine 400a (Nanolight Technologies) was added into the well by 10 μl. After a 5 min equilibration time in the darkness, plates were then read in a Synerg^TM H1 microplate reader (BioTek) with excitation at 395 nm and emission at 410 and 515 nm by serially three times. Then, 30 μl of 3.3× agonists were added into the wells with a gradient final concentration from 10^−4–10^−13 M. Plates were read immediately again by serially five times. Data were processed and analyzed following the method in the literature by using GraphPad Prism 8.0.

NMU2 F291A = target: T2, NMU2 F291A (Homo sapiens, UniProt Q9GZQ4, F291A); experiment: TRUPATH assay, NMU2 mutant F291A
T2 construct: HA signal peptide (N); expressed in transfected cells; host or cells: HEK 293F
Experimental: as §1

NMU2 A302H = target: T3, NMU2 A302H (Homo sapiens, UniProt Q9GZQ4, A302H); experiment: TRUPATH assay, NMU2 mutant A302H
T3 construct: HA signal peptide (N); expressed in transfected cells; host or cells: HEK 293F
Experimental: as §1

NMU2 F316A = target: T4, NMU2 F316A (Homo sapiens, UniProt Q9GZQ4, F316A); experiment: TRUPATH assay, NMU2 mutant F316A
T4 construct: HA signal peptide (N); expressed in transfected cells; host or cells: HEK 293F
Experimental: as §1

NMU2 = target: T5, NMU2 (Homo sapiens, UniProt Q9GZQ4); experiment: IP accumulation assay (IP-One Gq kit), WT NMU2; conditions: IP accumulation
T5 construct: HA signal peptide (N); expressed in transfected cells; host or cells: HEK 293F
Experimental: (§2) NMU2 constructs of WT and mutants were constructed into PTT5 vector (Invitrogen), as mentioned above. HEK 293F cells were transiently transfected with WT or mutants with total of 2000 ng plasmid DNA using transfection reagent (PEI MAX 2000, Polysciences) and cultivated at 37 °C with 5% CO2. Cells were collected after 48-h transfection. IP accumulation was tested by IP-One Gq assay kit (Cisbio Bioassays, 62IPAPEJ) following the instruction manual. In general, cells were resuspended with 1× HBSS buffer containing 20 mM LiCl (stimulation buffer) and seeded into the white 384-well microplates (Proxi Plate^TM-384 Plus, PerkinElmer) with a density of 20,000 per well. Cells were preincubated with 10^−5 M R-PSOP (provided by Boehringer Ingelheim company, Germany) and gradient concentration from 10^−4 to 10^−11 M of NMU-25 or gradient concentration 10^−4 to 10^−11 M of NMU-25 alone in stimulation buffer at 37 °C for 90 min. The cryptate-labeled anti-IP1 monoclonal antibody and d2-labeled IP1 were diluted with lysis & detection buffer (1:20) and added to each well by 3 μl, respectively. The plates were incubated at room temperature for 60 minutes and then read in a Synerg^TM H1 microplate reader (BioTek) with excitation at 330 nm and emission at 620 and 665 nm. The IP1 production was calculated by a standard dose–response curve and analyzed by GraphPad Prism 8.0.

NMU2 E127A = target: T6, NMU2 E127A (Homo sapiens, UniProt Q9GZQ4, E127A); experiment: IP accumulation assay, NMU2 mutant E127A; conditions: IP accumulation
T6 construct: HA signal peptide (N); expressed in transfected cells; host or cells: HEK 293F
Experimental: as §2

[1] = read-out: pEC50 mean±SEM (converted)
[2] = read-out: pEC50±SEM, NmU-25 alone (converted)

T2 sequence (Q9GZQ4 whole entry F291A): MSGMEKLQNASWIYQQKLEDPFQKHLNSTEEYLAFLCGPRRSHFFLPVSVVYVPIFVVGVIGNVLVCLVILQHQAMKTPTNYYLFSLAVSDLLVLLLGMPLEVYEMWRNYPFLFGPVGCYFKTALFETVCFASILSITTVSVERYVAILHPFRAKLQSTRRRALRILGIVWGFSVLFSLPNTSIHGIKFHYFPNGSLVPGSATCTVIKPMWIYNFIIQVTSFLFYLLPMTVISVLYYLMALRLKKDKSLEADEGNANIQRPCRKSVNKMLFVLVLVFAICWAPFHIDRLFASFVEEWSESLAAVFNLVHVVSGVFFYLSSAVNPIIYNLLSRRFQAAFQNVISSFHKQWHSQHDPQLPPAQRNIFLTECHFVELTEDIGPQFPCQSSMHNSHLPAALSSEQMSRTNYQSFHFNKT
T4 sequence (Q9GZQ4 whole entry F316A): as the sequence (Q9GZQ4 whole entry F291A) above, with A291F, F316A counted along it
T1 sequence (Q9GZQ4 whole entry F284A): as the sequence (Q9GZQ4 whole entry F291A) above, with F284A, A291F counted along it
T3 sequence (Q9GZQ4 whole entry A302H): as the sequence (Q9GZQ4 whole entry F291A) above, with A291F, A302H counted along it
T6 sequence (Q9GZQ4 whole entry E127A): as the sequence (Q9GZQ4 whole entry F291A) above, with E127A, A291F counted along it
T5 sequence (Q9GZQ4 whole entry): as the sequence (Q9GZQ4 whole entry F291A) above, with A291F counted along it

FRVDEEFQSPFASQSRGYFLFRPRN-NH2 [NmU-25]
NmU-25–induced G protein activation of NMU2 (NMU2 F284A; Log [NmU-25] M -7, single replicates): 16.596 and 4.555 and 25.4325 and 3.668 and -4.14
NmU-25–induced G protein activation of NMU2 (NMU2 F284A; Log [NmU-25] M -8, single replicates): 37.8124 and 33.3355 and -35.58 and 1.433 and 3.8556
NmU-25–induced G protein activation of NMU2 (NMU2 F284A; Log [NmU-25] M -9, single replicates): 18.5281 and 39.1515 and -3.291 and -33.2453 and 1.059
NmU-25–induced G protein activation of NMU2 (NMU2 F284A; Log [NmU-25] M -10, single replicates): -33.6452 and 11.984 and -41.6359 and -19.8948 and -2.9799
NmU-25–induced G protein activation of NMU2 (NMU2 F284A; Log [NmU-25] M -11, single replicates): -12.488 and 31.0606 and -18.1089 and -17.8891 and -12.403
G protein activation (TRUPATH), dose-response point (NMU2 F284A; Log [agonist] M -4): 51.7867 and 36.0609 and 47.0977
EC50 ratio EC50(mutant)/EC50(WT) (NMU2 F291A): 22
Span (window between Emax and minimal agonist response) (NMU2 F291A): 126±11 % of WT
G protein activation (TRUPATH), dose-response point (NMU2 F291A; Log [agonist] M -4): 101.173 and 139.066
G protein activation (TRUPATH), dose-response point (NMU2 F291A; Log [agonist] M -5): 80.701 and 107.283 and 106.417
span (NMU2 F291A; compared with wild-type, peer review file): 127%
ΔpEC50 (from WT) (NMU2 F291A; individual experiments): -0.7238 and -1.311 and -0.9879
EC50 (NMU2 F291A; read-out: EC50): 737 nM
EC50 (NMU2 F291A; [1]): 741 nM
EC50 ratio EC50(mutant)/EC50(WT) (NMU2 A302H): 5
Span (window between Emax and minimal agonist response) (NMU2 A302H): 97±11 % of WT
G protein activation (TRUPATH), dose-response point (NMU2 A302H; Log [agonist] M -4): 97.2233 and 94.5294
G protein activation (TRUPATH), dose-response point (NMU2 A302H; Log [agonist] M -6): 58.8982 and 69.5076 and 54.0633
ΔpEC50 (from WT) (NMU2 A302H; individual experiments): -0.7587 and -0.754 and -0.956
EC50 (NMU2 A302H; read-out: EC50): 162 nM
EC50 (NMU2 A302H; [1]): 162 nM
EC50 ratio EC50(mutant)/EC50(WT) (NMU2 F316A): 39
G protein activation (TRUPATH), dose-response point (NMU2 F316A; Log [agonist] M -4): 89.6236 and 94.3509 and 81.0469 and 109.176
G protein activation (TRUPATH), dose-response point (NMU2 F316A; Log [agonist] M -5): 58.7715 and 110.343 and 86.8329 and 108.262
ΔpEC50 (from WT) (NMU2 F316A; individual experiments): -1.816 and -2.03 and -0.9173 and -1.079
EC50 (NMU2 F316A; read-out: EC50): 1340 nM
EC50 (NMU2 F316A; [1]): 1350 nM
EC50 (NMU2; read-out: EC50, NmU-25 alone): 17 nM
EC50 (NMU2; [2]): 16.6 nM
EC50 (NMU2 E127A; read-out: EC50, NmU-25 alone): 2140 nM
EC50 (NMU2 E127A; [2]): 2140 nM

— PMC9794833, “Ligand recognition and activation of neuromedin U receptor 2” (Nature Communications, 2022)
